Reference: article PMC6374954, “Design, synthesis, and biological evaluation of novel derivatives of dithiodiglycolic acid prepared via oxidative coupling of thiols” (Journal of Enzyme Inhibition and Medicinal Chemistry, 2019)
Like-named read-outs stand apart in the source and are kept apart here. Blank lines part the entries; values can stand above or below the compound they belong to.

What was measured:
TrxR = target: TrxR; set-up: method as in PMID 27977313; settings: read-out: Ki value toward the enzyme; cited from earlier work
TrxR1 [1] = settings: cited from earlier work
TrxR1 [2] = target: T1, TrxR1 (Rattus norvegicus, UniProt O89049); assay: TrxR inhibition assay (DTNB), rat liver (hepatocyte) lysate
T1 sequence (O89049 1-499): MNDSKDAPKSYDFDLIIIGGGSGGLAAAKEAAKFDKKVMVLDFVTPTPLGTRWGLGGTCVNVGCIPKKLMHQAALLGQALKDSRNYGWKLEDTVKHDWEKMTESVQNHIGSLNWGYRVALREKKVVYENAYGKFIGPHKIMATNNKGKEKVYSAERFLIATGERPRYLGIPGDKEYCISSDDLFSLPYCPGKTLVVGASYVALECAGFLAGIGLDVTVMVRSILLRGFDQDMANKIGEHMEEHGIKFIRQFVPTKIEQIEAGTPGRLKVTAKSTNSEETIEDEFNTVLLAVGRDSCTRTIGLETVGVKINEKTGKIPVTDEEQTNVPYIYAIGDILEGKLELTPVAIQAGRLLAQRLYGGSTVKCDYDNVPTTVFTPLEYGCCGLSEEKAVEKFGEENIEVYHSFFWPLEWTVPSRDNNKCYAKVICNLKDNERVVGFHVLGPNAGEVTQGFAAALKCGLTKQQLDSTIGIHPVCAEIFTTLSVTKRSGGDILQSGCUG
Protocol: (§3) For TrxR assay, lysate from SH-SY5Y cells and rat liver were used. SHSY5Y cells were washed twice with phosphate buffer solution (PBS) and harvested from the flask with a scraper. Cells were homogenised in ice-cold 50 mM potassium phosphate buffer (pH 7.4), containing 1 mM EDTA, with Ultra Turrax T25 (Ikawerk, Janke and Kunkel Inc., Staufen, Germany). The homogenates were centrifuged at 10,000 × g for 15 min at 4 °C. The protein concentrations of the supernatants were determined using a Bio-Rad protein assay kit (Bio-Rad Laboratories, USA). TrxR activity was assayed using 5,5-dithio-bis-(2-nitrobenzoic acid) (DTNB, Sigma-Aldrich, USA) as substrate[21]. The reactions were run on a 96-well plates, final volume of 100 µl in 50 mM potassium phosphate buffer (pH 7.0), containing 50 µg of the cell lysate proteins, 1-mM EDTA, 50 mM KCl, 0.2 mg/ml bovine serum albumin, 0.25 mM NADPH (Acros Organics, USA). Reaction mixture was incubated for 15 min at room temperature in plate shaker (PST-60HL-4, BioSan, Riga, Latvia); afterwards DTNB was added to the total concentration of 2.5 mM. Enzyme kinetics was monitored on a Tecan Infinite1000 microplate reader, by measuring the increase in absorbance at 412 nm for 20 min. The background TrxR-independent reduction of DTNB in the cell lysates, as determined in the presence of aurothiomalate (200 µM), was subtracted from each value[22]. Reaction mixture with rat liver lysate contained 35 µg of proteins, 1 mM EDTA, 50 mM KCl, 0.2 mg/ml bovine serum albumin, 0.25 mM NADPH, and 2.5 mM DTNB. Reactions with rat liver lysate were run in the same manner as cell lysates.

TrxR1 [3] = target: T2, TrxR1 (Homo sapiens, UniProt Q16881); assay: TrxR inhibition assay (DTNB), SH-SY5Y cell lysate; format: biochemical; settings: for IC50: neuroblastoma (SHSY5Y) lysate, mean ± SEM (n = 3)
T2 construct: For TrxR assay, lysate from SH-SY5Y cells and rat liver were used; endogenous in cells; host or cells: SH-SY5Y human neuroblastoma cells (10,000 x g supernatant of the homogenate)
T2 sequence (Q16881 151-649 limits assumed): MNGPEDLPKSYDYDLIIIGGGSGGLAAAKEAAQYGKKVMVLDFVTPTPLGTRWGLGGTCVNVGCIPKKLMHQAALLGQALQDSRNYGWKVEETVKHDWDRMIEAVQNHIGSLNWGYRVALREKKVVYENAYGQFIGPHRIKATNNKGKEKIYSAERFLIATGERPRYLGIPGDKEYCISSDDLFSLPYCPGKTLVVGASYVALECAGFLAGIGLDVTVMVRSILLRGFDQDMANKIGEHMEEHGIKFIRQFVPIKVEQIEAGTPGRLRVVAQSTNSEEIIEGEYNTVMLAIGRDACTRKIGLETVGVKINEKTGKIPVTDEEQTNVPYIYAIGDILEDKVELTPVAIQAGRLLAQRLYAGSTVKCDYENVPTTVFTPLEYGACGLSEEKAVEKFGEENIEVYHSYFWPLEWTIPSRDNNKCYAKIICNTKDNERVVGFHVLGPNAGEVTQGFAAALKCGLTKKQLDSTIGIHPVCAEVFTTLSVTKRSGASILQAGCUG
Protocol: as §3

U87 cells = assay: Cytotoxicity assay (MTT), U87; format: cell-based, human; settings: for CC50: U87 cells, 72 h, MTT, mean ± SEM (n = 3)
Protocol: (§1) Human neuroblastoma cells (SH-SY5Y) were grown in 1:1 mixture of Eagle's Minimum Essential Medium and F12 Medium (Sigma) supplemented with 10% foetal bovine serum (Sigma). Human keratinocytes (HaCaT) were grown in DMEM, supplemented with 10% foetal bovine serum, 2 mM L-glutamine, 5000 U/ml penicillin, and 5 mg/ml streptomycin. Human glioblastoma cell (U87-MG) were grown in Minimum Essential Media (MEM), containing 10% foetal bovine serum, 2 mM L-glutamine, 5,000 U/ml penicillin, and 5 mg/ml streptomycin. All cell lines were obtained from American Type Culture Collection (ATCC, Rockville, MD). All cell lines were grown at 37 °C in a humidified 5% CO2 atmosphere.
(§2) Cells grown in 25 cm^2 tissue flasks were trypsinized, seeded into flat-bottomed adherent 96-well cell culture plates in appropriate medium (SH-SY5Y 12,000 cells/well, U87-MG 4000 cells/well, HaCaT 2000 cells/well) and incubated overnight; afterwards the cells were exposed to different concentrations of the tested compounds for 72 h. Cell viability was measured by MTT assay. Briefly, after incubation with the compounds, medium containing 0.2 mg/ml MTT was added. After incubation (3 h, 37 °C, 5% CO2), the MTT-containing medium was removed, and 200 µl of dimethyl sulfoxide (DMSO) was immediately added to each sample. The samples were assessed at 540 nm on LKB 5060–006 Microplate Reader (Vienna, Austria) microplate reader. The half-maximal inhibitory concentration (IC50) of each compound was calculated using Graph Pad Prism® 6.0 (GraphPad Software, Inc., USA).

HaCaT cells = assay: Cytotoxicity assay (MTT), HaCaT; format: cell-based, human; settings: 72 h, mean ± SEM (n = 3)
Protocol: as §1, §2

SHSY5Y cells = assay: Cytotoxicity assay (MTT), SH-SY5Y; format: cell-based, human; settings: 72 h, mean ± SEM (n = 3)
Protocol: as §1, §2

[4] = Cytotoxicity assay (MTT), U87; format: cell-based, human; settings: human, U87-MG glioblastoma cells; U87 cells; 72 h; MTT; mean ± SEM (n = 3)
Protocol: as §1, §2

[5] = Cytotoxicity assay (MTT), HaCaT; format: cell-based, human; settings: human, HaCaT keratinocytes, HaCaT cells, mean ± SEM (n = 3)
Protocol: as §1, §2

[6] = Cytotoxicity assay (MTT), SH-SY5Y; format: cell-based, human; settings: human, SH-SY5Y neuroblastoma cells, SHSY5Y cells, mean ± SEM (n = 3)
Protocol: as §1, §2

TrxR1 [7] = target: T1, TrxR1
Protocol: as §3

[8] = TrxR IC50 Hepatocyte lysate, mean ± SEM (n = 3)
[9] = read-out: TrxR IC50 Hepatocyte lysate, mean ± SEM (n = 3)

SMILES: CCC(C)SSc1ncc[nH]1 (stereo not shown) [Compound 2]
Ki (TrxR): 31 µM

SMILES: O=S(=O)(O)CCSSCCS(=O)(=O)O [Compound 4, disodium 2,2′-dithio-bis-ethane sulphonate]
Km (TrxR1 [1]; TrxR substrate analogue, read-out: Km value): 72 µM

SMILES: CN1C(=O)[C@@]23C[C@]4([C@]56C[C@@]78SS[C@@](CO)(C(=O)N7[C@H]5Nc5ccccc56)N(C)C8=O)c5ccccc5N[C@@H]4N2C(=O)[C@]1(CO)SS3 [Compound 5, chaetocin]
Km (TrxR1 [1]; TrxR1, substrate-competitive inhibition profile, read-out: Km values): 4.6 µM

SMILES: CN1C(=O)[C@]23CC4=CC=C[C@H](O)[C@H]4N2C(=O)[C@@]1(CO)SS3 [Compound 6, gliotoxin]
Km (TrxR1 [1]; read-out: Km values): 16.9 µM

IC50 (TrxR1 [2]; [8]): 170 ± 54.2 µM
IC50 (TrxR1 [3]): > 200 µM
SMILES: O=C(CSSCC(=O)N1CCCC1)N1CCCC1 [Compound 11a, 2,2′-Disulfanediylbis(1-(pyrrolidin-1-yl)ethan-1-one)]

SMILES: CCCNC(=O)CSSCC(=O)NCCC [Compound 11b]
times more active against U87 cell line compared to the other three compounds (U87 cells; U87, versus 11d, 11g, 12a): 2–3 times
CC50 (U87 cells): 54.6 ± 3.4 µM
CC50 (HaCaT cells): 58.4 ± 5 µM
CC50 (SHSY5Y cells): 220 ± 15.3 µM
IC50 (TrxR1 [2]; [9]): 26.5 ± 2.9 µM
IC50 (TrxR1 [3]): > 200 µM

SMILES: O=C(CSSCC(=O)N1CCOCC1)N1CCOCC1 [Compound 11c]
IC50 (TrxR1 [2]; [9]): 182 ± 32.2 µM
IC50 (TrxR1 [3]): 190 ± 78.4 µM

SMILES: O=C(CSSCC(=O)NC1CC1)NC1CC1 [Compound 11d]
CC50 (U87 cells): 180 ± 12.6 µM
CC50 (HaCaT cells): 69 ± 3.4 µM
CC50 (SHSY5Y cells): 202 ± 12 µM
IC50 (TrxR1 [2]; [9]): 34.7 ± 9.1 µM
IC50 (TrxR1 [3]): 63.6 ± 27.5 µM

SMILES: COc1ccc(CNC(=O)CSSCC(=O)NCc2ccc(OC)cc2)cc1 [Compound 11e]
IC50 (TrxR1 [2]; [9]): > 200 µM
IC50 (TrxR1 [3]): > 200 µM

SMILES: CN1CCN(C(=O)CSSCC(=O)N2CCN(C)CC2)CC1 [Compound 11f]
IC50 (TrxR1 [2]; [9]): > 200 µM
IC50 (TrxR1 [3]): > 200 µM

SMILES: CC(C)(C)NC(=O)CSSCC(=O)NC(C)(C)C [Compound 11g]
CC50 (U87 cells): 125 ± 15.6 µM
CC50 (HaCaT cells): 43 ± 2.9 µM
CC50 (SHSY5Y cells): 174 ± 18.3 µM
IC50 (TrxR1 [2]; [9]): 22.2 ± 3.1 µM
inhibitory activity against neuroblastoma (SHSY5Y) cell lysate (in words) (TrxR1 [3]): virtually no activity
IC50 (TrxR1 [3]): > 200 µM

SMILES: O=C(CSSCC(=O)Nc1ccc(F)cc1)Nc1ccc(F)cc1 [Compound 11h]
IC50 (TrxR1 [2]; [9]): > 200 µM
IC50 (TrxR1 [3]): > 200 µM

SMILES: COc1ccc(NC(=O)CSSCC(=O)Nc2ccc(OC)cc2)cc1 [Compound 11i]
IC50 (TrxR1 [2]; [9]): > 200 µM
IC50 (TrxR1 [3]): > 200 µM

SMILES: NC(=O)CSSCC(N)=O [Compound 11j]
IC50 (TrxR1 [2]; [9]): 90.4 ± 18.7 µM
inhibitory activity against neuroblastoma (SHSY5Y) cell lysate (in words) (TrxR1 [3]): virtually no activity
IC50 (TrxR1 [3]): > 200 µM

IC50 (TrxR1 [2]; [8]): 45.6 ± 6.8 µM
IC50 (TrxR1 [3]): 44.4 ± 15.1 µM
SMILES: CCCNC(=O)CSSCC(=O)N1CCOCC1 [Compound 12a, 2-((2-Morpholino-2-oxoethyl)disulfanyl)-N-propylacetamide]
CC50 at 72 h [4]: 187 ± 15.9 µM
CC50 at 72 h [5]: 71.8 ± 6.9 µM
CC50 at 72 h [6]: 176 ± 13.4 µM

IC50 (TrxR1 [2]; [8]): > 200 µM
IC50 (TrxR1 [3]): 186 ± 83.8 µM
SMILES: COC(=O)CSSCC(=O)Nc1ccc(F)cc1 [Compound 13a, Methyl 2-((2-((4-fluorophenyl)amino)-2-oxoethyl)disulfanyl)acetate]

IC50 (TrxR1 [2]; [8]): > 200 µM
inhibitory activity against neuroblastoma (SHSY5Y) cell lysate (in words) (TrxR1 [3]): virtually no activity
IC50 (TrxR1 [3]): > 200 µM
SMILES: O=C(O)CSSCC(=O)O [Compound 14, 2,2′-disulfanediyldiacetic acid, reference compound]

inhibitory activity against neuroblastoma (SHSY5Y) cell lysate (in words) (TrxR1 [3]): completely devoid of inhibitory activity
IC50 (TrxR1 [3]): > 200 µM
activity against liver cell lysate (in words) (TrxR1 [7]): completely devoid of inhibitory activity
SMILES: O=C([O-])CSSCC(=O)[O-].[Na+].[Na+] [Compound 15, 2,2′-disulfanediyldiacetic acid disodium salt, reference compound]

IC50 (TrxR1 [2]; [8]): > 200 µM
inhibitory activity against neuroblastoma (SHSY5Y) cell lysate (in words) (TrxR1 [3]): virtually no activity
IC50 (TrxR1 [3]): > 200 µM
SMILES: COC(=O)CSSCC(=O)OC [Compound 17, Dimethyl 2,2′-disulfanediyldiacetate]
